Measurements taken from patent publication US9302999B2, “Substituted triazoles as herbicides” (E. I. DU PONT DE NEMOURS AND COMPANY, priority 2012, dated 2016).

Legend:
Type in all cases: in vivo
corn (Zea mays) = assay: Test C pre-/postemergence: corn
In short: (§1)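 Visual injury scored 0–100 (100 = complete control) against untreated controls after 13–15 greenhouse days. Surfactant-containing solvent formulations applied either to soil after sowing (loam/sand) or over 1- to 4-leaf plants, 2–18 cm tall.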

wild oat (Avena fatua) = assay: Test C pre-/postemergence: wild oat; conditions: Postemergence
In short: as §1

[1] = test system: ducksalad (Heteranthera limosa); assay: Test B flooded paddy: ducksalad; conditions: Flood; 125 g ai/ha; applied to paddy water at 2-leaf stage; visually evaluated after 13 to 15 days
In short: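 Visual ratings (0 = no effect, 100 = complete control) versus untreated controls were taken 13–15 days after treatment of greenhouse plants. Treatment was added to paddy water held at 3 cm depth on 2-leaf-stage seedlings.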

[2] = test system: ryegrass, Italian (Italian ryegrass, Lolium multiflorum); assay: Test C pre-/postemergence: ryegrass, Italian
In short: as §1

[3] = test system: galium (catchweed bedstraw, Galium aparine); assay: Test C pre-/postemergence: galium
In short: as §1

[4] = test system: velvetleaf (Abutilon theophrasti); assay: Test C pre-/postemergence: velvetleaf
In short: as §1

[5] = test system: johnsongrass (Sorghum halepense); assay: Test C pre-/postemergence: johnsongrass
In short: as §1

kochia (Kochia scoparia) = assay: Test C pre-/postemergence: kochia; conditions: Postemergence
In short: as §1

[6] = test system: morningglory (Ipomoea coccinea); assay: Test C pre-/postemergence: morningglory
In short: as §1

[7] = test system: large crabgrass (Digitaria sanguinalis); assay: Test C pre-/postemergence: large crabgrass
In short: as §1

[8] = test system: foxtail, giant (giant foxtail, Setaria faberii); assay: Test C pre-/postemergence: foxtail, giant
In short: as §1

[9] = Postemergence, 31 g ai/ha, scale 0 to 100 (0 no effect, 100 complete control)
[10] = Postemergence, 62 g ai/ha, scale 0 to 100 (0 no effect, 100 complete control)
[11] = Postemergence, 250 g ai/ha, scale 0 to 100
[12] = Preemergence, 31 g ai/ha, scale 0 (no effect) to 100 (complete control)
[13] = Preemergence, 62 g ai/ha, scale of 0 to 100, 0 is no effect, 100 is complete control
[14] = Preemergence, 125 g ai/ha, scale 0 to 100, 0 no effect, 100 complete control
[15] = Preemergence, 250 g ai/ha, scale 0 to 100, 0 no effect, 100 complete control
[16] = 31 g ai/ha, scale 0 to 100 (0 no effect, 100 complete control)
[17] = 62 g ai/ha, scale 0 to 100 (0 no effect, 100 complete control)
[18] = 125 g ai/ha, scale 0 to 100, 0 no effect, 100 complete control
[19] = 250 g ai/ha, scale 0 to 100 (0 no effect, 100 complete control)
[20] = Postemergence, 125 g ai/ha, scale 0 to 100, 0 no effect, 100 complete control
[21] = Postemergence, 250 g ai/ha, scale 0 to 100 (0 no effect, 100 complete control)

CCc1nn(-c2ccc(C(F)(F)F)c(F)c2)nc1Oc1ccnc(C(F)(F)F)c1 [Compound 183]
Plant response rating, Corn (corn (Zea mays); [9]): 10
Plant response rating, Corn (corn (Zea mays); [10]): 20
Plant response rating, Corn (corn (Zea mays); [11]): 30
Plant response rating, Corn (corn (Zea mays); [12]): 15
Plant response rating, Corn (corn (Zea mays); [13]): 15
Plant response rating, Corn (corn (Zea mays); [14]): 40
Plant response rating, Corn (corn (Zea mays); [15]): 40
Plant response rating, Oat, Wild (wild oat (Avena fatua); [16]): 30
Plant response rating, Oat, Wild (wild oat (Avena fatua); [17]): 40
Plant response rating, Oat, Wild (wild oat (Avena fatua); [18]): 55
Plant response rating, Oat, Wild (wild oat (Avena fatua); [19]): 85
Plant response rating, Ducksalad (0 to 100 scale, 0 is no effect, 100 is complete control) [1]: 65
Plant response rating, Ryegrass, Italian [2, 9]: 10
Plant response rating, Ryegrass, Italian [2, 10]: 15
Plant response rating, Ryegrass, Italian [2, 20]: 20
Plant response rating, Ryegrass, Italian [2, 21]: 40
Plant response rating, Ryegrass, Italian [2, 12]: 65
Plant response rating, Ryegrass, Italian [2, 13]: 80
Plant response rating, Ryegrass, Italian [2, 14]: 90
Plant response rating, Ryegrass, Italian [2, 15]: 95
Plant response rating, Galium [3, 9]: 70
Plant response rating, Galium [3, 10]: 70
Plant response rating, Galium [3, 20]: 90
Plant response rating, Galium [3, 21]: 90
Plant response rating, Galium [3, 12]: 60
Plant response rating, Galium [3, 13]: 100
Plant response rating, Galium [3, 14]: 100
Plant response rating, Galium [3, 15]: 100
Plant response rating, Velvetleaf [4, 9]: 75
Plant response rating, Velvetleaf [4, 20]: 75
Plant response rating, Velvetleaf [4, 21]: 75
Plant response rating, Velvetleaf [4, 12]: 45
Plant response rating, Velvetleaf [4, 13]: 55
Plant response rating, Velvetleaf [4, 14]: 100
Plant response rating, Velvetleaf [4, 15]: 100
Plant response rating, Johnsongrass [5, 9]: 20
Plant response rating, Johnsongrass [5, 10]: 30
Plant response rating, Johnsongrass [5, 20]: 50
Plant response rating, Johnsongrass [5, 21]: 75
Plant response rating, Johnsongrass [5, 12]: 10
Plant response rating, Johnsongrass [5, 13]: 35
Plant response rating, Johnsongrass [5, 14]: 80
Plant response rating, Johnsongrass [5, 15]: 95
Plant response rating, Kochia (kochia (Kochia scoparia); [16]): 90
Plant response rating, Kochia (kochia (Kochia scoparia); [17]): 90
Plant response rating, Kochia (kochia (Kochia scoparia); [18]): 90
Plant response rating, Kochia (kochia (Kochia scoparia); [19]): 95
Plant response rating, Morningglory [6, 9]: 98
Plant response rating, Morningglory [6, 10]: 98
Plant response rating, Morningglory [6, 20]: 100
Plant response rating, Morningglory [6, 21]: 100
Plant response rating, Morningglory [6, 12]: 30
Plant response rating, Morningglory [6, 13]: 45
Plant response rating, Morningglory [6, 14]: 70
Plant response rating, Morningglory [6, 15]: 95
Plant response rating, Crabgrass, Large [7, 9]: 25
Plant response rating, Crabgrass, Large [7, 10]: 35
Plant response rating, Crabgrass, Large [7, 20]: 35
Plant response rating, Crabgrass, Large [7, 11]: 85
Plant response rating, Crabgrass, Large [7, 12]: 100
Plant response rating, Crabgrass, Large [7, 13]: 100
Plant response rating, Crabgrass, Large [7, 14]: 100
Plant response rating, Crabgrass, Large [7, 15]: 100
Plant response rating, Foxtail, Giant [8, 9]: 45
Plant response rating, Foxtail, Giant [8, 10]: 45
Plant response rating, Foxtail, Giant [8, 20]: 65
Plant response rating, Foxtail, Giant [8, 11]: 85
Plant response rating, Foxtail, Giant [8, 12]: 100
Plant response rating, Foxtail, Giant [8, 13]: 100
Plant response rating, Foxtail, Giant [8, 14]: 100
Plant response rating, Foxtail, Giant [8, 15]: 100

CCOc1nn(-c2ccc(Cl)cc2)nc1Cc1ccnc(C(F)(F)F)c1 [Compound 188]
Plant response rating, Corn (corn (Zea mays); [9]): 10
Plant response rating, Corn (corn (Zea mays); [10]): 20
Plant response rating, Corn (corn (Zea mays); [20]): 20
Plant response rating, Corn (corn (Zea mays); [11]): 35
Plant response rating, Corn (corn (Zea mays); [12]): 5
Plant response rating, Corn (corn (Zea mays); [13]): 5
Plant response rating, Corn (corn (Zea mays); [14]): 10
Plant response rating, Corn (corn (Zea mays); [15]): 20
Plant response rating, Oat, Wild (wild oat (Avena fatua); [16]): 45
Plant response rating, Oat, Wild (wild oat (Avena fatua); [17]): 60
Plant response rating, Oat, Wild (wild oat (Avena fatua); [18]): 60
Plant response rating, Oat, Wild (wild oat (Avena fatua); [19]): 90
Plant response rating, Ducksalad (0 to 100 scale, 0 is no effect, 100 is complete control) [1]: 90
Plant response rating, Ryegrass, Italian [2, 9]: 50
Plant response rating, Ryegrass, Italian [2, 10]: 70
Plant response rating, Ryegrass, Italian [2, 20]: 85
Plant response rating, Ryegrass, Italian [2, 21]: 90
Plant response rating, Ryegrass, Italian [2, 12]: 60
Plant response rating, Ryegrass, Italian [2, 13]: 65
Plant response rating, Ryegrass, Italian [2, 14]: 95
Plant response rating, Ryegrass, Italian [2, 15]: 98
Plant response rating, Galium [3, 9]: 60
Plant response rating, Galium [3, 10]: 80
Plant response rating, Galium [3, 20]: 85
Plant response rating, Galium [3, 21]: 90
Plant response rating, Galium [3, 12]: 90
Plant response rating, Galium [3, 13]: 90
Plant response rating, Galium [3, 14]: 95
Plant response rating, Galium [3, 15]: 95
Plant response rating, Velvetleaf [4, 9]: 50
Plant response rating, Velvetleaf [4, 10]: 65
Plant response rating, Velvetleaf [4, 20]: 70
Plant response rating, Velvetleaf [4, 21]: 70
Plant response rating, Velvetleaf [4, 12]: 45
Plant response rating, Velvetleaf [4, 13]: 65
Plant response rating, Velvetleaf [4, 14]: 85
Plant response rating, Velvetleaf [4, 15]: 90
Plant response rating, Johnsongrass [5, 9]: 45
Plant response rating, Johnsongrass [5, 10]: 75
Plant response rating, Johnsongrass [5, 20]: 95
Plant response rating, Johnsongrass [5, 21]: 98
Plant response rating, Johnsongrass [5, 12]: 55
Plant response rating, Johnsongrass [5, 13]: 85
Plant response rating, Johnsongrass [5, 14]: 95
Plant response rating, Johnsongrass [5, 15]: 98
Plant response rating, Kochia (kochia (Kochia scoparia); [16]): 70
Plant response rating, Kochia (kochia (Kochia scoparia); [17]): 90
Plant response rating, Kochia (kochia (Kochia scoparia); [18]): 90
Plant response rating, Kochia (kochia (Kochia scoparia); [19]): 90
Plant response rating, Morningglory [6, 9]: 70
Plant response rating, Morningglory [6, 10]: 100
Plant response rating, Morningglory [6, 20]: 100
Plant response rating, Morningglory [6, 13]: 60
Plant response rating, Morningglory [6, 14]: 85
Plant response rating, Morningglory [6, 15]: 100
Plant response rating, Crabgrass, Large [7, 9]: 50
Plant response rating, Crabgrass, Large [7, 10]: 85
Plant response rating, Crabgrass, Large [7, 20]: 95
Plant response rating, Crabgrass, Large [7, 11]: 95
Plant response rating, Crabgrass, Large [7, 12]: 98
Plant response rating, Crabgrass, Large [7, 13]: 100
Plant response rating, Crabgrass, Large [7, 14]: 100
Plant response rating, Crabgrass, Large [7, 15]: 100
Plant response rating, Foxtail, Giant [8, 9]: 98
Plant response rating, Foxtail, Giant [8, 10]: 98
Plant response rating, Foxtail, Giant [8, 20]: 98
Plant response rating, Foxtail, Giant [8, 11]: 100
Plant response rating, Foxtail, Giant [8, 12]: 100
Plant response rating, Foxtail, Giant [8, 13]: 100
Plant response rating, Foxtail, Giant [8, 14]: 100
Plant response rating, Foxtail, Giant [8, 15]: 100
